Reference: the OPERA property sets (Mansouri et al. 2018)

Settings: not given

Compound | ready biodegradability | log10 vapour pressure (mmHg) | boiling point | melting point | log10 Henry constant (atm·m³/mol) | log10 Koc (L/kg) | log10 biodegradation half-life (days) | log10 Koa
CCCOC(=O)N1CCNCC1 | readily biodegradable | – | – | – | – | – | – | –
CCC(CO)CC(C)C (stereo not given) | – | -0.625 | – | – | – | – | – | –
S=C1SCCS1 | – | – | 307 °C | 35 °C | – | – | – | –
CCC=CCCO | – | – | 156 °C | – | – | – | – | –
COc1cccc(N(C)C(=S)Oc2cccc(C(C)(C)C)c2)n1 | – | – | – | 86 °C | – | – | – | –
FC(F)F | – | 4.55 | -82.1 °C | -155 °C | -1.02 | – | – | –
Cn1ccccc1=S | – | – | – | 89.5 °C | – | – | – | –
CC(C)=CCC1=C(O)C(C(=O)CC(C)C)=C(O)C(CC=C(C)C)(CC=C(C)C)C1=O | – | – | – | 93 °C | – | – | – | –
CCC(Br)(Br)CBr | – | – | 214 °C | – | – | – | – | –
Sc1ccccc1S | – | – | 238 °C | 28.5 °C | – | – | – | –
Cc1cccc(C(N)=O)c1 | – | – | – | 95 °C | – | – | – | –
CC(C)=CC(=O)Cl | – | – | 146 °C | – | – | – | – | –
C1=Cc2cccc3cccc1c23 | readily biodegradable | -2.18 | 280 °C | 92.5 °C | -3.94 | 3.75 | 1.58 | –
COc1cccc(OC)c1C | – | – | – | 40 °C | – | – | – | –
Clc1ccccn1 | not readily biodegradable | 0.338 | 170 °C | -46.5 °C | – | – | – | –
CN(C)CCCN1c2ccccc2Sc2ccc(Cl)cc21.Cl | – | – | – | 195 °C | – | – | – | –
CC(C)(Oc1ccc(CCNC(=O)c2ccc(Cl)cc2)cc1)C(=O)O | – | – | – | 186 °C | – | – | – | –
C(=NC1CCCCC1)=NC1CCCCC1 | not readily biodegradable | – | – | 34.5 °C | – | – | – | –
CC1(C)CC(N)CC(C)(C)N1 | – | – | 188 °C | 17 °C | – | – | – | –
COCC(O)COC | – | – | 169 °C | – | – | – | – | –
CC(=O)c1cccc(Br)c1 | – | – | – | 7.5 °C | – | – | – | –
CC(C=CC=CC(C)=CC=CC(C)=CC=C1C(C)=CC(=O)CC1(C)C)=CC=CC(C)=CC=C1C(C)=CC(=O)CC1(C)C | – | – | – | 219 °C | – | – | – | –
CC(C)(C)C#N | – | 1.54 | 106 °C | 15 °C | – | – | – | –
Nc1ccc(S(=O)(=O)Nc2cnccn2)cc1 | – | – | – | 251 °C | – | – | – | –
Cc1ccc2ccccc2c1 | – | -1.26 | 241 °C | 34.4 °C | -3.29 | 3.6 | 1.15 | –
COc1cc(NS(C)(=O)=O)ccc1Nc1c2ccccc2nc2ccccc12 | – | – | – | 235 °C | – | – | – | –
Oc1cc(Cl)ccc1Oc1ccc(Cl)cc1Cl | not readily biodegradable | – | – | 55.6 °C | – | – | – | –
CC1CS1 (stereo not given) | – | – | 72.5 °C | -91 °C | – | – | – | –

Compound | ready biodegradability | log10 vapour pressure (mmHg) | boiling point | melting point | log10 Henry constant (atm·m³/mol) | log10 Koc (L/kg) | log10 biodegradation half-life (days) | log10 Koa
Fc1ccccc1-c1ccccc1 | – | – | 248 °C | 73.5 °C | – | – | – | –
COc1ccc(O[C@@H]2O[C@H](CO)[C@H](O)[C@H](O)[C@H]2O)cc1 | – | – | – | 159 °C | – | – | – | –
Clc1ccc2c(c1)Oc1ccccc1O2 | – | -4.89 | – | 88 °C | – | – | – | –
Cc1cccc2c1Cc1ccccc1-2 | – | -3.52 | – | 85 °C | – | – | – | –
CCCCCCC | readily biodegradable | 1.66 | 98.5 °C | -90.6 °C | – | – | 0.845 | 2.95
OCCCCCCCCCCCCO | – | – | – | 81.3 °C | – | – | – | –
O=C(Nc1ccccc1)Nc1cnns1 | – | -10.6 | – | – | – | 2.04 | – | –
CCCCCCCCCCCCCCCCCCC | readily biodegradable | -4.31 | 330 °C | 32.1 °C | – | – | 1.26 | –
C#CC(C)(C)N | – | – | 79.5 °C | 18 °C | – | – | – | –
CC(=O)OC1CCCCC1 | – | 1.03 | 173 °C | -65 °C | – | – | – | –
CC(=O)C(N=Nc1ccc(-c2ccc(N=NC(C(C)=O)C(=O)Nc3ccccc3C)c(Cl)c2)cc1Cl)C(=O)Nc1ccccc1C (stereo not given) | not readily biodegradable | – | – | – | – | – | – | –
c1ccc2cnncc2c1 | – | – | 316 °C | 90.5 °C | – | – | – | –
Cc1ccc([N+](=O)[O-])cc1Cl | not readily biodegradable | – | 260 °C | 66.5 °C | – | – | – | –
CC(C)(C)N(CCO)CCO | – | – | – | 42 °C | – | – | – | –
Cc1ncc(COP(=O)(O)O)c(C=O)c1O.O | – | – | – | 142 °C | – | – | – | –
Cc1cccc(Nc2ccccc2)c1 | – | -3.83 | 316 °C | 30 °C | – | – | – | –
CCCSSCCC | – | -0.291 | 194 °C | -85.6 °C | – | – | – | –
COc1cc(C=C2CCCC(=Cc3ccc(O)c(OC)c3)C2=O)ccc1O | – | – | – | 178 °C | – | – | – | –
O=Cc1ccncc1 | – | – | – | – | -6.75 | – | – | –
NS(=O)(=O)c1ccc(SCCCCO)cc1 | – | – | – | 101 °C | – | – | – | –
Cl.NCc1ccccc1 | – | – | – | 262 °C | – | – | – | –
OCC(Cl)Cl | – | – | 146 °C | – | – | – | – | –
CCC(=O)OCC(C)C | – | 0.811 | 137 °C | -71.4 °C | – | – | – | –
CC(C)CC(O)C(C)C (stereo not given) | – | – | 158 °C | – | – | – | – | –
Ic1ccccc1 | – | 0.0253 | 188 °C | -31.3 °C | – | 3.1 | – | –
Nc1ccncc1 | not readily biodegradable | – | 273 °C | 158 °C | – | – | – | –
C=C(C)C(=O)OCC(C)C | – | 0.56 | 155 °C | – | – | – | – | –

Same assay, conditions: fish

Compound | log10 BCF | log10 biotransformation half-life (days)
Clc1cc(Cl)c(Cl)c(Cl)c1Cl | 3.75 | 1.87
Nc1ccc(Cc2ccc(N)cc2)cc1 | 1.18 | –
Brc1c(Br)c(Br)c(Oc2c(Br)c(Br)c(Br)c(Br)c2Br)c(Br)c1Br | – | 1.16
Cc1ccc(N)cc1C | 0.95 | -0.99
C1=Cc2cccc3cccc1c23 | 2.43 | 0.52
Clc1ccccn1 | 1.28 | -0.85
Cc1ccc2ccccc2c1 | 1.87 | 0.88
Oc1cc(Cl)ccc1Oc1ccc(Cl)cc1Cl | 1.72 | –
Nc1ccncc1 | 0.66 | –
